Data taken from ChEMBL document CHEMBL4507285, “Data for DCP probe MRL-SYKi” (2021).

Legend:
Conditions in all cases: Compound concentration 100.0 nM
[1] = target: AP2-associated protein kinase 1 (Homo sapiens) (UniProt Q2M2I8)
[2] = target: Activin receptor type-1-like (Homo sapiens) (UniProt P37023)
[3] = target: RAC-beta serine/threonine-protein kinase (Homo sapiens) (UniProt P31751)
[4] = target: BMP-2-inducible protein kinase (Homo sapiens) (UniProt Q9NSY1)
[5] = target: Cyclin-dependent kinase 7 (Homo sapiens) (UniProt P50613)
[6] = target: Cyclin-dependent kinase 9 (Homo sapiens) (UniProt P50750)
[7] = target: Dual specificity protein kinase CLK4 (Homo sapiens) (UniProt Q9HAZ1)
[8] = target: Casein kinase I isoform gamma-1 (Homo sapiens) (UniProt Q9HCP0)
[9] = target: Megakaryocyte-associated tyrosine-protein kinase (Homo sapiens) (UniProt P42679)
[10] = target: Mitogen-activated protein kinase kinase kinase 12 (Homo sapiens) (UniProt Q12852)
[11] = test system: Epidermal growth factor receptor (Homo sapiens), P00533 [G719S]
[12] = test system: Epidermal growth factor receptor (Homo sapiens), P00533 [L858R,T790M]
[13] = target: Ephrin type-B receptor 2 (Homo sapiens) (UniProt P29323)
[14] = target: Fibroblast growth factor receptor 2 (Homo sapiens) (UniProt P21802)
[15] = test system: Fibroblast growth factor receptor 3 (Homo sapiens), P22607 [G697C]
[16] = test system: Receptor-type tyrosine-protein kinase FLT3 (Homo sapiens), P36888 [N841I]
[17] = target: Rhodopsin kinase GRK7 (Homo sapiens) (UniProt Q8WTQ7)
[18] = target: Homeodomain-interacting protein kinase 3 (Homo sapiens) (UniProt Q9H422)
[19] = test system: Mast/stem cell growth factor receptor Kit (Homo sapiens), P10721 [A829P]
[20] = target: Tyrosine-protein kinase Lck (Homo sapiens) (UniProt P06239)
[21] = test system: Leucine-rich repeat serine/threonine-protein kinase 2 (Homo sapiens), Q5S007 [G2019S]
[22] = target: Dual specificity mitogen-activated protein kinase kinase 1 (Homo sapiens) (UniProt Q02750)
[23] = target: Mitogen-activated protein kinase kinase kinase 10 (Homo sapiens) (UniProt Q02779)
[24] = target: Myosin light chain kinase family member 4 (Homo sapiens) (UniProt Q86YV6)
[25] = target: Serine/threonine-protein kinase Nek5 (Homo sapiens) (UniProt Q6P3R8)
[26] = target: Mitogen-activated protein kinase 13 (Homo sapiens) (UniProt O15264)
[27] = target: Mitogen-activated protein kinase 12 (Homo sapiens) (UniProt P53778)
[28] = target: Serine/threonine-protein kinase PAK 3 (Homo sapiens) (UniProt O75914)
[29] = test system: Phosphatidylinositol 4,5-bisphosphate 3-kinase catalytic subunit alpha isoform (Homo sapiens), P42336 [Q546K]
[30] = target: Serine/threonine-protein kinase pim-1 (Homo sapiens) (UniProt P11309)
[31] = target: Serine/threonine-protein kinase D3 (Homo sapiens) (UniProt O94806)
[32] = target: cGMP-dependent protein kinase 1 (Homo sapiens) (UniProt Q13976)
[33] = target: Serine/threonine-protein kinase RIO3 (Homo sapiens) (UniProt O14730)
[34] = target: Ribosomal protein S6 kinase alpha-4 (Homo sapiens) (UniProt O75676)
[35] = target: Ribosomal protein S6 kinase alpha-5 (Homo sapiens) (UniProt O75582)
[36] = target: Ribosomal protein S6 kinase alpha-1 (Homo sapiens) (UniProt Q15418)
[37] = target: Serine/threonine-protein kinase SBK1 (Homo sapiens) (UniProt Q52WX2)
[38] = target: Serine/threonine-protein kinase 16 (Homo sapiens) (UniProt O75716)
[39] = target: STE20/SPS1-related proline-alanine-rich protein kinase (Homo sapiens) (UniProt Q9UEW8)
[40] = target: Tyrosine-protein kinase SYK (Homo sapiens, UniProt P43405)
[41] = target: Serine/threonine-protein kinase TAO2 (Homo sapiens) (UniProt Q9UL54)
[42] = target: Angiopoietin-1 receptor (Homo sapiens) (UniProt Q02763)
[43] = target: Testis-specific serine/threonine-protein kinase 1 (Homo sapiens) (UniProt Q9BXA7)
[44] = target: Tyrosine-protein kinase receptor TYRO3 (Homo sapiens) (UniProt Q06418)
[45] = target: Serine/threonine-protein kinase WNK2 (Homo sapiens) (UniProt Q9Y3S1)

Testis-specific serine/threonine-protein kinase 1 (Homo sapiens), sequence (Q9BXA7 whole entry): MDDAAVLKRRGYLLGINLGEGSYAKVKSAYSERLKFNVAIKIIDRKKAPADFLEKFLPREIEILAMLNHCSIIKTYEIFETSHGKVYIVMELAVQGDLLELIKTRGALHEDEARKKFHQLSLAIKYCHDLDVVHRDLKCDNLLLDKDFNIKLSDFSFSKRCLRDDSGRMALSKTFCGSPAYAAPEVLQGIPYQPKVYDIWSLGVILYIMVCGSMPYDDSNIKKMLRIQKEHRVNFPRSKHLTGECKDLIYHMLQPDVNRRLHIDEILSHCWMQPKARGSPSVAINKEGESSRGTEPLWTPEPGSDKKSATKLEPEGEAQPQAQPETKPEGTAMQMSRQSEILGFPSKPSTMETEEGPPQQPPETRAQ
Dual specificity mitogen-activated protein kinase kinase 1 (Homo sapiens), sequence (Q02750 whole entry): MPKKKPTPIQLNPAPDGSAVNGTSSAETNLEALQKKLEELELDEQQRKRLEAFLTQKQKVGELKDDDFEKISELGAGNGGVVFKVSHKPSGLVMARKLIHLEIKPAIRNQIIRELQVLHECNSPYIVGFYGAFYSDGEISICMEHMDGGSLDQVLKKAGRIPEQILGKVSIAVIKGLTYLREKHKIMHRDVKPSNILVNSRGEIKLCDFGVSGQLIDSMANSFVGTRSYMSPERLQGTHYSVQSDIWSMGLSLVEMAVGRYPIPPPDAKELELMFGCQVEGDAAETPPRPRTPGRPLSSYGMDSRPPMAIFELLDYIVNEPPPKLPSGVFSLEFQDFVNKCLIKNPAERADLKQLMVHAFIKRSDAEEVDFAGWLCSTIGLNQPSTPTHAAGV
Serine/threonine-protein kinase PAK 3 (Homo sapiens), sequence (O75914 whole entry, looked up, canonical isoform): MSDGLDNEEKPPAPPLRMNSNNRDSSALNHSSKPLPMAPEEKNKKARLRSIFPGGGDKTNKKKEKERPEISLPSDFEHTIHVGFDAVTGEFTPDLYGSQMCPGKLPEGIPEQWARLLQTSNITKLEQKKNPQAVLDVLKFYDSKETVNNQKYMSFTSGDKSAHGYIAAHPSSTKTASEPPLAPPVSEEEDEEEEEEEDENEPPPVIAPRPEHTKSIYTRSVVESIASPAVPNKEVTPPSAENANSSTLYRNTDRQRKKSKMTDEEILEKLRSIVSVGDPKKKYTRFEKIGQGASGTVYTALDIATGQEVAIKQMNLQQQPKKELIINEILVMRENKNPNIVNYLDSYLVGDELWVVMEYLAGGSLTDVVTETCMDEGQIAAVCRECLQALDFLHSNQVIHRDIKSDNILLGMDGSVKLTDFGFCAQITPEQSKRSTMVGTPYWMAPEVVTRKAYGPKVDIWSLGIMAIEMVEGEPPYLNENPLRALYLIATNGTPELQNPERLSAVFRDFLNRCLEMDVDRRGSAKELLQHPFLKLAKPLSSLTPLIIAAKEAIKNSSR
Megakaryocyte-associated tyrosine-protein kinase (Homo sapiens), sequence (P42679 whole entry): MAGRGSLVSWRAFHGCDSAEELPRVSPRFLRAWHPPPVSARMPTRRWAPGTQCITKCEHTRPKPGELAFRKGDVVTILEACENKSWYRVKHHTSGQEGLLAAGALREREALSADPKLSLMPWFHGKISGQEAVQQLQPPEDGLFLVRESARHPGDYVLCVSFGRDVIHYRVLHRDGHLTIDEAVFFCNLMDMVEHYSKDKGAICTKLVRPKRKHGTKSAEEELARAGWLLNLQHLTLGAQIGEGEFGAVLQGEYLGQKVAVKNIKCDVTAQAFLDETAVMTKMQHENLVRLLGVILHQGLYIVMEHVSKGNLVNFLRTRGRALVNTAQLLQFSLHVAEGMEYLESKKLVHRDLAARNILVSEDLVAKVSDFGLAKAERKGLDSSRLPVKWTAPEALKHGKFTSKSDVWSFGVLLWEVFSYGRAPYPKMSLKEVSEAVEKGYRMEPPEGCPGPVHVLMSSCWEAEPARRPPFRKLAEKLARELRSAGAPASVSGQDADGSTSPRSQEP
Serine/threonine-protein kinase SBK1 (Homo sapiens), sequence (Q52WX2 whole entry): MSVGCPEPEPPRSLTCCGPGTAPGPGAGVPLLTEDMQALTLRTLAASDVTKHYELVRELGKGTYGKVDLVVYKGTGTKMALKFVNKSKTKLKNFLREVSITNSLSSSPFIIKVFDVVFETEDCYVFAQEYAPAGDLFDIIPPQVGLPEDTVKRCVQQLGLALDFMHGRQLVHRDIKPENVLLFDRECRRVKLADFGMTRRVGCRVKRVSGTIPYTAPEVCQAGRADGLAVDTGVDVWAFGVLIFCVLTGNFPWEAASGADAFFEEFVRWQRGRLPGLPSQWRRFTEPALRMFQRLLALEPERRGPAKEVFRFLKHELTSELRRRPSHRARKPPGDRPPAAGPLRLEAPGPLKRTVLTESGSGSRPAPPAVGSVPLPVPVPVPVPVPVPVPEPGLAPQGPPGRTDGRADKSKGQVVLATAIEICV
Activin receptor type-1-like (Homo sapiens), sequence (P37023 whole entry): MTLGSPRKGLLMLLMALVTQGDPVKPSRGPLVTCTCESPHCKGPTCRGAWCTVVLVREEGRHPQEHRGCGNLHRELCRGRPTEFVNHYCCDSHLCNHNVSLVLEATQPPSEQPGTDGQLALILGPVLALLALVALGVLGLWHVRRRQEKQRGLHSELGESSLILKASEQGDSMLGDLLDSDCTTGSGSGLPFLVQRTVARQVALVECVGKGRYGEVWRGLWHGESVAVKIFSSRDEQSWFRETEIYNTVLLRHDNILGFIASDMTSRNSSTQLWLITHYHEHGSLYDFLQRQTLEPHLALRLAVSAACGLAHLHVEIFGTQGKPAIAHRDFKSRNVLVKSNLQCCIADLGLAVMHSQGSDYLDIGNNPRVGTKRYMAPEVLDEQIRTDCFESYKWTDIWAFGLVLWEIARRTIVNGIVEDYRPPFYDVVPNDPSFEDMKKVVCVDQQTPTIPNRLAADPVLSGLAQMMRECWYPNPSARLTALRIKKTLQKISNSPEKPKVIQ
Homeodomain-interacting protein kinase 3 (Homo sapiens), sequence (Q9H422 whole entry, looked up): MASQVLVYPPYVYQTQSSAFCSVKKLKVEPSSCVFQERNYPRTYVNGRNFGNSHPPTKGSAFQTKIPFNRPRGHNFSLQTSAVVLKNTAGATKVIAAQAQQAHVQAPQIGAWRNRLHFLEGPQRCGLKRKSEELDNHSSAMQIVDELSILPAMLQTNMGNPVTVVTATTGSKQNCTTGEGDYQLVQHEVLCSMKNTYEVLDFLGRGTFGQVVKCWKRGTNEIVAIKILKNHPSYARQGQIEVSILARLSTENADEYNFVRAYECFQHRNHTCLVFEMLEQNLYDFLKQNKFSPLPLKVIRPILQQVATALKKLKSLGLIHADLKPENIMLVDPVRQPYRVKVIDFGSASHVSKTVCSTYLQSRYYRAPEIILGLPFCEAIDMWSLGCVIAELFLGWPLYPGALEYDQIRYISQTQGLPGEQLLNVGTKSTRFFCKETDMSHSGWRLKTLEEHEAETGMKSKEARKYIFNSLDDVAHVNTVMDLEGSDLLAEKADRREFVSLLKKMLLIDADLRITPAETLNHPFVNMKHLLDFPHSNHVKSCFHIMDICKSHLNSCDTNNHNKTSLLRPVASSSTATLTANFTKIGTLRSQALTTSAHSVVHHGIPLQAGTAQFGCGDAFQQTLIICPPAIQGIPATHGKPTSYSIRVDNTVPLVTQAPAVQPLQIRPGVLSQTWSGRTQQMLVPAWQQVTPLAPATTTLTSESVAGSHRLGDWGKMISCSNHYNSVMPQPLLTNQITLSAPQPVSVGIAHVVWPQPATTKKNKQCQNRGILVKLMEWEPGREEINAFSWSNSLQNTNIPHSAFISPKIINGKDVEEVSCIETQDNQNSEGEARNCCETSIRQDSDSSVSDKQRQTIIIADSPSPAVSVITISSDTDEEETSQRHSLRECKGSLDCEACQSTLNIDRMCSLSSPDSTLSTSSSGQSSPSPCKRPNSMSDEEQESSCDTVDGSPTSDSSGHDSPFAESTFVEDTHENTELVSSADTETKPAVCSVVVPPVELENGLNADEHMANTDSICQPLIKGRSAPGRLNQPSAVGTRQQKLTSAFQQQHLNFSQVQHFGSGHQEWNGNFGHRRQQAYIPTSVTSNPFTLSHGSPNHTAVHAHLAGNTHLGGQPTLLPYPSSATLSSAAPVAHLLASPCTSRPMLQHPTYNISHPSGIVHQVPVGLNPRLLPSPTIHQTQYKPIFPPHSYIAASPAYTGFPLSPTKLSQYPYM
Serine/threonine-protein kinase RIO3 (Homo sapiens), sequence (O14730 whole entry): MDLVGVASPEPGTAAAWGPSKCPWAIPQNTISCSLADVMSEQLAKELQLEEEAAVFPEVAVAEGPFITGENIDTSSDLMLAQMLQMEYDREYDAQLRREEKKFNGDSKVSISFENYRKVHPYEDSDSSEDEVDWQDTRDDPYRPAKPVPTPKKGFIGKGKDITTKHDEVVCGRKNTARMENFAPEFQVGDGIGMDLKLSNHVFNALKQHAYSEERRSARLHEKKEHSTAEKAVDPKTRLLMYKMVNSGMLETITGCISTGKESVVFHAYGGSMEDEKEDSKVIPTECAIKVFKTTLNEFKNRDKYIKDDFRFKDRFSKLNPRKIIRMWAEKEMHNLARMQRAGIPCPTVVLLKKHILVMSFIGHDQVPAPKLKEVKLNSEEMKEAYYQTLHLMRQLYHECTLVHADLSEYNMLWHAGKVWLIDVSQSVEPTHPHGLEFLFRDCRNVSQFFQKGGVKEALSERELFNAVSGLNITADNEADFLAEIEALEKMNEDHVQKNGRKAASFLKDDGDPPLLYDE
Serine/threonine-protein kinase 16 (Homo sapiens), sequence (O75716 whole entry): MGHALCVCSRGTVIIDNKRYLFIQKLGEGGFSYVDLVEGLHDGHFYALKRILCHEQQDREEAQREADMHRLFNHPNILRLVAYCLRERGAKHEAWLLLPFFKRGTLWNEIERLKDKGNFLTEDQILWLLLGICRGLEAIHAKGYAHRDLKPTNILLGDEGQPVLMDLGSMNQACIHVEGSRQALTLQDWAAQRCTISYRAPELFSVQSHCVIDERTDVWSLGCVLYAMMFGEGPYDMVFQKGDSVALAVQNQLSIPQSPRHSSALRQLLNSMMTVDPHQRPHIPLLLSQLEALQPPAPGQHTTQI

Compound: Cc1ccc(-c2cnc([C@@]3(O)CC[C@H](C(=O)O)C(C)(C)C3)s2)cc1Nc1cccc(C(F)(F)F)n1 [MRL-SYKi-NC]
- residual activity [1]: 85.7%
- residual activity [2]: 100%
- residual activity [3]: 100%
- residual activity [4]: 100%
- residual activity [5]: 86.2%
- residual activity [6]: 100%
- residual activity [7]: 65.2%
- residual activity [8]: 91.8%
- residual activity [9]: 74.6%
- residual activity [10]: 99.3%
- residual activity [11]: 99.3%
- residual activity [12]: 100%
- residual activity [13]: 100%
- residual activity [14]: 100%
- residual activity [15]: 100%
- residual activity [16]: 89.3%
- residual activity [17]: 75.4%
- residual activity [18]: 88.3%
- residual activity [19]: 61.5%
- residual activity [20]: 100%
- residual activity [21]: 64.9%
- residual activity [22]: 95%
- residual activity [23]: 69.4%
- residual activity [24]: 100%
- residual activity [25]: 100%
- residual activity [26]: 100%
- residual activity [27]: 98.8%
- residual activity [28]: 76.3%
- residual activity [29]: 100%
- residual activity [30]: 100%
- residual activity [31]: 100%
- residual activity [32]: 77.5%
- residual activity [33]: 100%
- residual activity [34]: 81.3%
- residual activity [35]: 71.4%
- residual activity [36]: 100%
- residual activity [37]: 51.1%
- residual activity [38]: 78%
- residual activity [39]: 100%
- residual activity [40]: 90%
- residual activity [41]: 84.7%
- residual activity [42]: 95.2%
- residual activity [43]: 100%
- residual activity [44]: 100%
- residual activity [45]: 98.6%

Compound: Cc1cc(Nc2nccc(C)n2)cc(-c2cnc([C@@]3(O)CC[C@H](C(=O)O)C(C)(C)C3)s2)c1 [MRL-SYKi]
- residual activity [1]: 100%
- residual activity [2]: 66.5%
- residual activity [3]: 100%
- residual activity [4]: 100%
- residual activity [5]: 100%
- residual activity [6]: 100%
- residual activity [7]: 90.9%
- residual activity [8]: 100%
- residual activity [9]: 100%
- residual activity [10]: 66.9%
- residual activity [11]: 100%
- residual activity [12]: 46.2%
- residual activity [13]: 100%
- residual activity [14]: 67.3%
- residual activity [15]: 100%
- residual activity [16]: 100%
- residual activity [17]: 100%
- residual activity [18]: 87.3%
- residual activity [19]: 100%
- residual activity [20]: 73%
- residual activity [21]: 92.3%
- residual activity [22]: 100%
- residual activity [23]: 95.1%
- residual activity [24]: 100%
- residual activity [25]: 74.2%
- residual activity [26]: 97.9%
- residual activity [27]: 31.2%
- residual activity [28]: 100%
- residual activity [29]: 81.6%
- residual activity [30]: 91.7%
- residual activity [31]: 100%
- residual activity [32]: 100%
- residual activity [33]: 77.2%
- residual activity [34]: 100%
- residual activity [35]: 100%
- residual activity [36]: 100%
- residual activity [37]: 100%
- residual activity [38]: 100%
- residual activity [39]: 81.8%
- residual activity [40]: 0.9%
- residual activity [41]: 97.5%
- residual activity [42]: 99%
- residual activity [43]: 100%
- residual activity [44]: 60.2%
- residual activity [45]: 81.2%
